Data on 17 molecules can be found in patent US12441725B2, “ISO-citrate dehydrogenase (IDH) inhibitor” (ZHEJIANG METON PHARMACEUTICAL CO., LTD, priority 2019, dated 2025).

The target of one assay is T1, IDH1 R132H (Homo sapiens, UniProt O75874, R132H).
T1 construct: 6xHis
The assay is described as follows: Biochemical assay for IDH inhibition (NADPH fluorescence), mutant IDH1 R132H. The note with it: 50 nM IDH1-R132H, 1 hour pre-incubation, in triplet. A digest of the protocol:
(§1)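 Mutant enzyme (25 nM R132C or 50 nM R132H) was preincubated 1 h at room temperature with compound in pH 7.5 Tris buffer containing 1.33 mM α-KG, and the reaction was then started with NADPH (80 μM solution). NADPH consumption was followed by fluorescence (Ex 340/Em 460 nm) for 15 min. IC50 was derived from background-corrected linear rates relative to vehicle, run in triplicate.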

A further assay concerns the target T2, IDH1 R132C (Homo sapiens, UniProt O75874, R132C).
T2 construct: 6xHis
The assay is described as follows: Biochemical assay for IDH inhibition (NADPH fluorescence), mutant IDH1 R132C. Particulars: 25 nM IDH1-R132C, 1 hour pre-incubation, in triplet. In a few lines: as §1

Assay [1] addresses T3, IDH (endogenous IDH1 R132C) in HT1080 cell (Homo sapiens, UniProt O75874, R132C).
T3 construct: which harbor endogenous heterozygous IDH1 R132C and R132H mutation respectively and accumulate D-2-HG
Briefly: Cell-based assay for IDH inhibition (decrease of D-2-HG) in HT1080 cells. The note with it: human fibrosarcoma cell line HT1080, 16 hours treatment, D-2-HG by LC-MS, in triplet. A digest of the protocol: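 HT1080 cells with endogenous IDH1 R132C, grown in DMEM/10% FBS, treated with compound at several concentrations for 16 h. Metabolites extracted in cold 40% methanol/40% acetonitrile and D-2-HG measured by HILIC LC-MS/MS, normalized to glutamate. IC50 from D-2-HG relative to DMSO controls; run in triplicate.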

As a reminder, the IC50 is the point on the concentration scale where inhibition reaches its midpoint.

T3 sequence (O75874 2-414 R132C): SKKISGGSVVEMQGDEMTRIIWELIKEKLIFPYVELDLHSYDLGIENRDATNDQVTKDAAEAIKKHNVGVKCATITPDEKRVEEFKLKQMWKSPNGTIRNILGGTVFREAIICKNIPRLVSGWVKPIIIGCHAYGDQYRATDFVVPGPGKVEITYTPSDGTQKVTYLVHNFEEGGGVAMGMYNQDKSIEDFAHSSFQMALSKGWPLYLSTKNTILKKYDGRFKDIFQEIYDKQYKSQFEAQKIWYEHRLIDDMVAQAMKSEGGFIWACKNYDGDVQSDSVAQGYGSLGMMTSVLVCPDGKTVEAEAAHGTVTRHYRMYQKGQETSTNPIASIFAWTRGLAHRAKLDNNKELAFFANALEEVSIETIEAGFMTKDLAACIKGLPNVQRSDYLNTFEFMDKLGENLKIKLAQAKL
T1 sequence (O75874 whole entry R132H): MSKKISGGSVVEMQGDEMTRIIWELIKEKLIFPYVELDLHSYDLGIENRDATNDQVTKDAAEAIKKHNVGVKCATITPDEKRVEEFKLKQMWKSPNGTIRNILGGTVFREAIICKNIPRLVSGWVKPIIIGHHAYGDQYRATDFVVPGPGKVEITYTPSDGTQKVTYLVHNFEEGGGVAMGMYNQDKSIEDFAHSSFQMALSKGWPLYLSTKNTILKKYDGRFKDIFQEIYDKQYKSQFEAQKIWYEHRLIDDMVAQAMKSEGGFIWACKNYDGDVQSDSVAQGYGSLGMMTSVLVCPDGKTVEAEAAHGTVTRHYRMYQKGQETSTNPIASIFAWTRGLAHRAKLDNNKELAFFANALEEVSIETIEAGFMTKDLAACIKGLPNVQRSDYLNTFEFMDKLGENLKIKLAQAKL
T2 sequence (O75874 whole entry R132C): as the sequence (O75874 whole entry R132H) above, with H132C counted along it

`CCN1Cc2c(ccnc2N[C@@H](C)c2cc(F)c(-c3ccc(OC)c(C(C)(C)C)n3)cc2F)C1=O` [Compound 149, (S)-4-((1-(4-(6-(tert-butyl)-5-methoxypyridin-2-yl)-2,5-difluorophenyl)ethyl)amino)-2-ethyl-2,3-dihydro-1H-pyrrolo[3,4-c]pyridin-1-one]: the IC50 was under 100 nM at IDH1 R132H, 100 to 500 nM at IDH1 R132C and 100 to 500 nM in assay [1].
For `CCN1Cc2c(ccnc2N[C@@H](C)c2cc(F)c(-c3cc(C(C)(C)C)c(OC)cn3)cc2F)C1=O` [Compound 150, (S)-4-((1-(4-(4-(tert-butyl)-5-methoxypyridin-2-yl)-2,5-difluorophenyl)ethyl)amino)-2-ethyl-2,3-dihydro-1H-pyrrolo[3,4-c]pyridin-1-one], the IC50 (at IDH1 R132H; at IDH1 R132C; in assay [1]) was under 100 nM throughout.
Turning to `CCN1Cc2c(ccnc2N[C@@H](C)c2cc(F)c(-c3cc(OC(C)(C)C)ncc3C)cc2F)C1=O` [Compound 151, (S)-4-((1-(4-(2-(tert-butoxy)-5-methylpyridin-4-yl)-2,5-difluorophenyl)ethyl)amino)-2-ethyl-2,3-dihydro-1H-pyrrolo[3,4-c]pyridin-1-one], the IC50 at IDH1 R132H was under 100 nM; on IDH1 R132C it was 100 to 500 nM; in assay [1], under 100 nM.
For the molecule `CCN1Cc2c(ccnc2N[C@@H](C)c2cc(F)c(-c3cc(OC(C)(C)C)c(Cl)cn3)cc2F)C1=O` [Compound 152, (S)-4-((1-(4-(4-(tert-butoxy)-5-chloropyridin-2-yl)-2,5-difluorophenyl)ethyl)amino)-2-ethyl-2,3-dihydro-1H-pyrrolo[3,4-c]pyridin-1-one], the IC50 (at IDH1 R132H; at IDH1 R132C; in assay [1]) was under 100 nM in each case.
Regarding `CCN1Cc2c(ccnc2N[C@@H](C)c2cc(F)c(-c3cc(C(C)(C)F)c(OC)nn3)cc2F)C1=O` [Compound 153, (S)-4-((1-(2,5-difluoro-4-(5-(2-fluoropropan-2-yl)-6-methoxypyridazin-3-yl)phenyl)ethyl)amino)-2-ethyl-2,3-dihydro-1H-pyrrolo[3,4-c]pyridin-1-one], the IC50 (on IDH1 R132H; on IDH1 R132C; in assay [1]) was under 100 nM in each case.
In the case of `CCN1Cc2c(ccnc2N[C@@H](C)c2cc(F)c(-c3ccnc(C(C)(C)C#N)c3)cc2F)C1=O` [Compound 154, (S)-2-(4-(4-(1-((2-ethyl-1-oxo-2,3-dihydro-1H-pyrrolo[3,4-c]pyridin-4-yl)amino)ethyl)-2,5-difluorophenyl)pyridin-2-yl)-2-methylpropanenitrile], the results for the half-maximal inhibitory concentration (IC50) (at IDH1 R132H; at IDH1 R132C; in assay [1]) were 100 to 500 nM, 500 to 1000 nM and 100 to 500 nM, respectively.
As to `CCN1Cc2c(ccnc2N[C@@H](C)c2cc(F)c(-c3cc(C(F)(F)F)cc(F)n3)cc2F)C1=O` [Compound 155, (S)-4-((1-(2,5-difluoro-4-(6-fluoro-4-(trifluoromethyl)pyridin-2-yl)phenyl)ethyl)amino)-2-ethyl-2,3-dihydro-1H-pyrrolo[3,4-c]pyridin-1-one], the figures for the IC50 (at IDH1 R132H; on IDH1 R132C; in assay [1]) were under 100 nM, 100 to 500 nM and 100 to 500 nM, respectively.
Regarding `CCN1Cc2c(ccnc2N[C@@H](C)c2cc(F)c(-c3cc(C(C)(C)F)cc(O)n3)cc2F)C1=O` [Compound 156, (S)-4-((1-(2,5-difluoro-4-(4-(2-fluoropropan-2-yl)-6-hydroxypyridin-2-yl)phenyl)ethyl)amino)-2-ethyl-2,3-dihydro-1H-pyrrolo[3,4-c]pyridin-1-one], the IC50 at IDH1 R132H lay in the range of 100 to 500 nM; on IDH1 R132C it was 500 to 1000 nM; in assay [1], 100 to 500 nM.
For the molecule `CCN1Cc2c(ccnc2N[C@@H](C)c2cc(F)c(-c3cc(C(F)(F)F)cc(O)n3)cc2F)C1=O` [Compound 157, (S)-4-((1-(2,5-difluoro-4-(6-hydroxy-4-(trifluoromethyl)pyridin-2-yl)phenyl)ethyl)amino)-2-ethyl-2,3-dihydro-1H-pyrrolo[3,4-c]pyridin-1-one], the values for the IC50 (on IDH1 R132H; on IDH1 R132C; in assay [1]) were 100 to 500 nM, over 1000 nM and over 1000 nM, respectively.
Turning to `COCCN1Cc2c(ccnc2N[C@@H](C)c2cc(F)c(-c3ccnc(C(C)(C)C)c3)cc2F)C1=O` [Compound 158, (S)-4-((1-(4-(2-(tert-butyl)pyridin-4-yl)-2,5-difluorophenyl)ethyl)amino)-2-(2-methoxyethyl)-2,3-dihydro-1H-pyrrolo[3,4-c]pyridin-1-one], the 50% inhibitory concentration (IC50) at IDH1 R132H was 100 to 500 nM; at IDH1 R132C, over 1000 nM; in assay [1], over 1000 nM.
In the case of `C[C@H](Nc1nccc2c1CN(CCO)C2=O)c1cc(F)c(-c2ccnc(C(C)(C)C)c2)cc1F` [Compound 159, (S)-4-((1-(4-(2-(tert-butyl)pyridin-4-yl)-2,5-difluorophenyl)ethyl)amino)-2-(2-hydroxyethyl)-2,3-dihydro-1H-pyrrolo[3,4-c]pyridin-1-one], the IC50 (at IDH1 R132H; on IDH1 R132C; in assay [1]) was 100 to 500 nM throughout.
`CCN1Cc2c(ccnc2N[C@@H](C)c2cc(F)c(-c3cn(C(C)(C)C)cn3)cc2F)C1=O` [Compound 160, (S)-4-((1-(4-(1-(tert-butyl)-1H-imidazol-4-yl)-2,5-difluorophenyl)ethyl)amino)-2-ethyl-2,3-dihydro-1H-pyrrolo[3,4-c]pyridin-1-one]: the IC50 (on IDH1 R132H; at IDH1 R132C; in assay [1]) was 100 to 500 nM in each case.
Regarding `CCN1Cc2c(ccnc2N[C@@H](C)c2cc(F)c(-c3cc(C(C)(C)F)c(OCOC)cn3)cc2F)C1=O` [Compound 161, (S)-4-((1-(2,5-difluoro-4-(4-(2-fluoropropan-2-yl)-5-(methoxymethoxy)pyridin-2-yl)phenyl)ethyl)amino)-2-ethyl-2,3-dihydro-1H-pyrrolo[3,4-c]pyridin-1-one], the IC50 (at IDH1 R132H; at IDH1 R132C; in assay [1]) was under 100 nM each time.
Consider `CCN1Cc2c(ccnc2N[C@@H](C)c2cc(F)c(-c3cc(C(C)(C)F)c(O)cn3)cc2F)C1=O` [Compound 162, (S)-4-((1-(2,5-difluoro-4-(4-(2-fluoropropan-2-yl)-5-hydroxypyridin-2-yl)phenyl)ethyl)amino)-2-ethyl-2,3-dihydro-1H-pyrrolo[3,4-c]pyridin-1-one], for which the IC50 (at IDH1 R132H; on IDH1 R132C; in assay [1]) was 100 to 500 nM in each case.
For `CCN1Cc2c(ccnc2N[C@@H](C)c2cc(F)c(-c3cc(C(C)(C)F)c(C#N)cn3)cc2F)C1=O` [Compound 163, (S)-6-(4-(1-((2-ethyl-1-oxo-2,3-dihydro-1H-pyrrolo[3,4-c]pyridin-4-yl)amino)ethyl)-2,5-difluorophenyl)-4-(2-fluoropropan-2-yl)nicotinonitrile], the IC50 at IDH1 R132H was under 100 nM; at IDH1 R132C, 100 to 500 nM; in assay [1], under 100 nM.
With `CCN1Cc2c(ccnc2N[C@@H](C)c2cc(F)c(-c3cc(C(F)(F)F)c(O)cn3)cc2F)C1=O` [Compound 164, (S)-4-((1-(2,5-difluoro-4-(5-hydroxy-4-(trifluoromethyl)pyridin-2-yl)phenyl)ethyl)amino)-2-ethyl-2,3-dihydro-1H-pyrrolo[3,4-c]pyridin-1-one], the IC50 at IDH1 R132H was in the range of 100 to 500 nM; at IDH1 R132C, 500 to 1000 nM; in assay [1], 500 to 1000 nM.
For the molecule `CCN1Cc2c(ccnc2N[C@@H](C)c2cc(F)c(-c3cc(C(F)(F)F)c(OC)cn3)cc2F)C1=O` [Compound 165, (S)-4-((1-(2,5-difluoro-4-(5-methoxy-4-(trifluoromethyl)pyridin-2-yl)phenyl)ethyl)amino)-2-ethyl-2,3-dihydro-1H-pyrrolo[3,4-c]pyridin-1-one], the IC50 (at IDH1 R132H; at IDH1 R132C; in assay [1]) was under 100 nM each time.
